Values after ≈ are worked out from the molar mass of the structure shown. Read-outs that look alike come from different tables or passages of the source.
What was measured:
aminopeptidase B = molecular target: T1, aminopeptidase B (Rattus norvegicus, UniProt O09175); test: Inhibitory activity against aminopeptidase B; type: biochemical; settings: for IC50: read-out: ID50 (the source's name) (converted); for inhibitory effect relative to Bestatin: compared with Bestatin
T1 construct: aminopeptidase B solution which is prepared by Sephadex 100 chromatography as described by Hopusu et al; from tissue
T1 sequence (O09175 1-650): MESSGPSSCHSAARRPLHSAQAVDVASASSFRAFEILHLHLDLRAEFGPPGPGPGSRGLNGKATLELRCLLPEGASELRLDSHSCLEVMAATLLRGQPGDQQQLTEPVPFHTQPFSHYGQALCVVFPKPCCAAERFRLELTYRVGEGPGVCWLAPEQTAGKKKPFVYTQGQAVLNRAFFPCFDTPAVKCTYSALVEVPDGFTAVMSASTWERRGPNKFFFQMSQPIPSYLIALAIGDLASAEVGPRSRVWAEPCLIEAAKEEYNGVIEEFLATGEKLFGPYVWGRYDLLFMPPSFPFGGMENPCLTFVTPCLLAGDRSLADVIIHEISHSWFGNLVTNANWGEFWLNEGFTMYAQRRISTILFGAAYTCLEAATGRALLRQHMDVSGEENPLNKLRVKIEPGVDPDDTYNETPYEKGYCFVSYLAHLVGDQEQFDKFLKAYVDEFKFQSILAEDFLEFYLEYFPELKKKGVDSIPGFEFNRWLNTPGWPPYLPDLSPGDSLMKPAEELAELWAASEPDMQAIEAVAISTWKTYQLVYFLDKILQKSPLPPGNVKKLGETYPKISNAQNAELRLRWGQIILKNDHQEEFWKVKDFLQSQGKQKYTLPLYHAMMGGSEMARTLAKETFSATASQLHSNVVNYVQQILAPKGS
Procedure: (A) Inhibitory activity against aminopeptidase B Testing method: The method described by […] in Archives of Biochemistry and Biophysics 114, 557, (1966) was modfied. To the mixture of 0.3 ml. of 1 mM arginine β-naphthylamide and 1.0 Ml. of 0.1 M Tris hydrochloride buffer (pH 7.0), 0.7 Ml. of distilled water with or without a test material is added and warmed at 37° C. for 3 minutes. The reaction is started by addition of 0.2 ml. of aminopeptidase B solution which is prepared by Sephadex 100 chromatography as described by Hopusu et al. […] Fifteen minutes at room temperature thereafter, absorbance (a) at 530 nm is measured by spectrophotometer. […] The inhibition percent is calculated as follows: (b-a)/b×100.

[1] = tested on: plaque forming cells in the spleen; test: Effect on humoral antibody formation to Sheep Red Blood Cell (SRBC) in mice (JERNE's hemolytic plaque technique); type: in vivo, Mice (dd/y female); settings: for Antibody Forming Cells Number / Antibody Forming Cells Treated Group / Non-treated Group: intraperitoneal, four days
Procedure: The compound of Example 28 was also tested for its humoral antibody formation to find its efficacy as an immunizing cancer inhibitor. […] For the humoral antibody formation of Bestatin per se see J. Antibiotics, 29(8), 857-859 (August, 1976).
The effect of (2RS,3RS)-3-amino-2-hydroxy-4-hydroxyphenylbutanoyl-(S)-leucine on humoral antibody formation to Sheep Red Blood Cell (SRBC) in mice was studied as follows.
Mice (dd/y female) were immunized by intravenous injection of 10^8 SRBC. Intraperitoneal injection of (2RS,3RS)-3-amino-2-hydroxy-4-hydroxyphenylbutanoyl-(S)-leucine was made soon afterwards.
Four days thereafter the number of plaque forming cells in the spleen were enumerated by JERNE's hemolytic plaque technique [Jerne, N. K.; A. A. Nordin & C. Henry: "The Agar Plaque Technique for Recognizing Antibody-producing Cells" in cell-bound antibodies (Wistar Institute Press, Philadelphia, 1963), pp. 109-122].

[2] = pH 7.0, 37° C., 30 minutes, Table 1
[3] = Biological Testing table after Example 29

Compound: CSCC[C@H](NC(=O)[C@@H](O)[C@H](N)Cc1ccccc1)C(=O)O [No. 8, (2S,3R)-3-amino-2-hydroxy-4-phenylbutanoyl-(S)-methionine]
- ID50 (aminopeptidase B; [2]): 0.22 µg/mL (≈ 0.674 µM)

Compound: CC(C)C[C@@H](NC(=O)[C@@H](O)[C@@H](N)Cc1ccccc1)C(=O)O [No. 4, (2S,3S)-3-amino-2-hydroxy-4-phenylbutanoyl-(R)-leucine]
- IC50 (aminopeptidase B; [2]): 130 nM

Compound: CC(C)C[C@H](NC(=O)[C@@H](O)[C@H](N)Cc1ccc([N+](=O)[O-])cc1)C(=O)O [No. 22, (2S,3R)-3-amino-2-hydroxy-4-p-nitrophenylbutanoyl-(S)-leucine]
- ID50 (aminopeptidase B; [2]): 0.01 µg/mL (≈ 0.0283 µM)

Compound: N[C@H](Cc1ccccc1)[C@H](O)C(=O)N[C@@H](Cc1ccccc1)C(=O)O [No. 12, (2S,3R)-3-amino-2-hydroxy-4-phenylbutanoyl-(S)-phenylalanine]
- ID50 (aminopeptidase B; [2]): 4.2 µg/mL (≈ 12.3 µM)

Compound: CC[C@H](C)[C@H](NC(=O)[C@@H](O)[C@H](N)Cc1ccccc1)C(=O)O [No. 7, (2S,3R)-3-amino-2-hydroxy-4-phenylbutanoyl-(S)-isoleucine]
- IC50 (aminopeptidase B; [2]): 162 nM

Compound: CC(C)C[C@H](NC(=O)[C@@H](O)[C@@H](N)Cc1ccccc1)C(=O)O [No. 2, (2S,3S)-3-amino-2-hydroxy-4-phenylbutanoyl-(S)-leucine]
- ID50 (aminopeptidase B; [2]): 1.25 µg/mL (≈ 4.05 µM)

Compound: CC(C)C[C@H](NC(=O)C(O)C(N)Cc1ccc(O)cc1)C(=O)O (stereo partly drawn) [Example 28, (2RS,3RS)-3-amino-2-hydroxy-4-p-hydroxyphenylbutanoyl-(S)-leucine]
- number of antibody forming cells relative to non-treated mice ([1]; 1 mcg.): 1.41 times
- number of antibody forming cells relative to non-treated mice ([1]; 10 mcg.): 1.66 times
- Antibody Forming Cells Number ([1]; dose 1 mg.): 207,400±8,025
- Antibody Forming Cells Treated Group / Non-treated Group ([1]; dose 1 mg.): 1.66
- Antibody Forming Cells Number ([1]; dose 0.1 mcg.): 141,000±5,700
- Antibody Forming Cells Treated Group / Non-treated Group ([1]; dose 0.1 mcg.): 1.13
- Antibody Forming Cells Number ([1]; dose 1 mcg.): 175,800±8,200
- Antibody Forming Cells Treated Group / Non-treated Group ([1]; dose 1 mcg.): 1.41
- Antibody Forming Cells Number ([1]; dose 10 mcg.): 208,000±7,180
- Antibody Forming Cells Treated Group / Non-treated Group ([1]; dose 10 mcg.): 1.66
- Antibody Forming Cells Number ([1]; dose 100 mcg.): 261,000±11,700
- Antibody Forming Cells Treated Group / Non-treated Group ([1]; dose 100 mcg.): 2.09
- number of humoral antibody (forming) cells ([1]; in words): increasing the number of humoral antibody cells to a considerable degree
- number of nonspecific antibody forming cells ([1]; in words): did not increase the weight of the spleen or the number of nonspecific antibody forming cells
- weight of the spleen ([1]; in words): did not increase the weight of the spleen
- number of humoral antibody (forming) cells ([1]; in words, listed as (2RS,3RS)-3-amino-2-hydroxy-4-hydroxybutanoyl-(S)-leucine): excellent effect of increasing the number of antibody forming cells
- IC50 (aminopeptidase B; [3]): 308 nM
- inhibitory effect relative to Bestatin (aminopeptidase B): substantially the same inhibitory effects as Bestatin

Compound: NC(=O)CC[C@H](NC(=O)[C@@H](O)[C@H](N)Cc1ccccc1)C(=O)O [No. 9, (2S,3R)-3-amino-2-hydroxy-4-phenylbutanoyl-(S)-glutamine]
- ID50 (aminopeptidase B; [2]): 1.2 µg/mL (≈ 3.71 µM)

Compound: CC(C)C[C@H](NC(=O)C(O)[C@@H](C)N)C(=O)O (some centres unmarked) [No. 16]
- ID50 (aminopeptidase B; [2]): 16 µg/mL (≈ 68.9 µM)

Compound: CC(C)C[C@H](NC(=O)C(O)[C@H](N)CC(C)C)C(=O)O (stereo partly drawn) [No. 17, (2RS,3R)-30 amino-2-hydroxy-5-methylhexanoyl-(S)-leucine]
- ID50 (aminopeptidase B; [2]): 12 µg/mL (≈ 43.7 µM)

Compound: CC(C)C[C@H](NC(=O)[C@@H](O)[C@H](N)CC1CCCCC1)C(=O)O [No. 24, (2S,3R)-3-amino-2-hydroxy-4-cyclohexylbutanoyl-(S)-leucine]
- IC50 (aminopeptidase B; [2]): 3340 nM

Compound: CCCCCCC(NC(=O)[C@@H](O)[C@H](N)Cc1ccccc1)C(=O)O (stereo partly drawn) [No. 15, (2S,3R)-3-amino-2-hydroxy-4-phenylbutanoyl-(RS)-2-aminooctanoic acid]
- ID50 (aminopeptidase B; [2]): 3.1 µg/mL (≈ 9.21 µM)

Compound: CC(C)C[C@H](NC(=O)[C@@H](O)[C@H](N)Cc1ccc(O)cc1)C(=O)O [Example 29, (2S,3R)-3-amino-2-hydroxy-4-p-hydroxyphenylbutanoyl-(S)-leucine]
- IC50 (aminopeptidase B; [3]): 21.6 nM
- inhibitory effect relative to Bestatin (aminopeptidase B): one-fourteenth of Bestatin

Compound: CC(C)C[C@H](NC(=O)C(O)C(N)Cc1ccc(Cl)cc1)C(=O)O (stereo partly drawn) [No. 19, (2RS,3RS)-3-amino-2-hydroxy-4-p-chlorophenylbutanoyl-(S)-leucine]
- number of antibody forming cells compared with non-treated group ([1]; 10 mcg., in words): nearly equal to that of non-treated group
- Antibody Forming Cells Number ([1]; dose 1 mg.): 208,750±8,000
- Antibody Forming Cells Treated Group / Non-treated Group ([1]; dose 1 mg.): 1.67
- Antibody Forming Cells Number ([1]; dose 10 mcg.): 133,750±5,600
- Antibody Forming Cells Treated Group / Non-treated Group ([1]; dose 10 mcg.): 1.07

Compound: N[C@H](Cc1ccccc1)[C@H](O)C(=O)N[C@@H](CO)C(=O)O [No. 13, (2S,3R)-3-amino-2-hydroxy-4-phenylbutanoyl-(S)-serine]
- IC50 (aminopeptidase B; [2]): 2550 nM

Compound: CC(C)C[C@@H](NC(=O)[C@@H](O)[C@H](N)Cc1ccccc1)C(=O)O [No. 3, (2S,3R)-3-amino-2-hydroxy-4-phenylbutanoyl-(R)-leucine]
- ID50 (aminopeptidase B; [2]): 0.56 µg/mL (≈ 1.82 µM)

Compound: Cc1ccc(CC(N)C(O)C(=O)N[C@@H](CC(C)C)C(=O)O)cc1 (stereo partly drawn) [No. 21, (2RS,3RS)-3-amino-2-hydroxy-4-p-methylphenylbutanoyl-(S)-leucine]
- ID50 (aminopeptidase B; [2]): 0.01 µg/mL (≈ 0.031 µM)

Compound: N[C@H](Cc1ccccc1)[C@H](O)C(=O)NCC(=O)O [No. 5, (2S,3R)-3-amino-2-hydroxy-4-phenylbutanoyl-glycine]
- ID50 (aminopeptidase B; [2]): 21.5 µg/mL (≈ 85.2 µM)

Compound: CC(C)C[C@H](NC(=O)C(O)[C@H](N)c1ccccc1)C(=O)O (stereo partly drawn) [No. 18, (2RS,3R)-3-amino-2-hydroxy-3-phenylpropionyl-(S)-leucine]
- ID50 (aminopeptidase B; [2]): 56 µg/mL (≈ 190 µM)

Compound: N[C@H](Cc1ccccc1)[C@H](O)C(=O)N[C@@H](CCC(=O)O)C(=O)O [No. 14, (2S,3R)-3-amino-2-hydroxy-4-phenylbutanoyl-(S)-glutamic acid]
- ID50 (aminopeptidase B; [2]): 25 µg/mL (≈ 77.1 µM)

Compound: CC(C)C[C@H](NC(=O)[C@@H](O)[C@H](N)Cc1ccc(N)cc1)C(=O)O [No. 23, (2S,3R)-3-amino-2-hydroxy-4-p-aminophenylbutanoyl-(S)-leucine]
- ID50 (aminopeptidase B; [2]): 0.10 µg/mL (≈ 0.309 µM)

Compound: CCCC[C@H](NC(=O)[C@@H](O)[C@H](N)Cc1ccccc1)C(=O)O [No. 11, (2S,3R)-3-amino-2-hydroxy-4-phenylbutanoyl-(S)-norleucine]
- ID50 (aminopeptidase B; [2]): 0.13 µg/mL (≈ 0.422 µM)
